Activity data for one molecule are collected here from ChEMBL document CHEMBL4311992, “Discovery of 3-(((9H-purin-6-yl)amino)methyl)-4,6-dimethylpyridin-2(1H)-one derivatives as novel tubulin polymerization inhibitors for treatment of cancer” (Eur J Med Chem, 2019).

The target of data set [1] is Tau-tubulin kinase 2 (Homo sapiens) (UniProt Q6IQ55). Kind of data set: Inhibition of human TTBK2 (1 to 331 residues) using Casein as substrate measured after 40 mins in presence of [gamma33P]ATP by scintillation counting method. More on the design: scale not given: the % may be the effect or the level left.
The target of data set [2] is Mitogen-activated protein kinase kinase kinase kinase 4 (Homo sapiens) (UniProt O95819). Put plainly: Inhibition of recombinant human MAP4K4 (1 to 328 residues) assessed as residual activity at 10 uM using RLGRDKYKTLRQIRQ as substrate measured after 40 mins in presence of [gamma33P]ATP by scintillation counting method.
For a further data set, the species on record is Mus musculus. Kind of data set: Inhibition of recombinant full-length mouse PI3K p110beta/p85beta R123L mutant assessed as residual activity at 10 uM using phosphatidylinositol-4, 5-bisphosphate as substrate measured after 40 mins by HTRF assay. For orientation: Time-resolved FRET reads energy transfer from a long-lived donor to a nearby acceptor.

In data set [3] the target is Tyrosine-protein kinase JAK1 (Homo sapiens) (UniProt P23458). Put plainly: Inhibition of recombinant human JAK1 (866 to end residues) assessed as residual activity at 10 uM using GEEPLYWSFPAKKK as substrate measured after 40 mins in presence of [gamma33P]ATP by scintillation counting method.
In data set [4] the test system is Serine/threonine-protein kinase Sgk2 (Homo sapiens), Q9HBY8 [S416D]. Kind of data set: Inhibition of recombinant human SGK2 S416D mutant (54 to end residues) assessed as residual activity at 10 uM using GRPRTSSFAEGKK as substrate measured after 40 mins in presence of [gamma33P]ATP by scintillation counting method.
Data set [5] deals with Ephrin type-B receptor 4 (Homo sapiens) (UniProt P54760). Kind of data set: Inhibition of recombinant human EphB4 (561 to end residues) assessed as residual activity at 10 uM using poly (Glu, Tyr) 4:1 as substrate measured after 40 mins in presence of [gamma33P]ATP by scintillation counting method.
Data set [6] deals with Macrophage colony-stimulating factor 1 receptor (Homo sapiens), P07333 [Y969C]. Kind of data set: Inhibition of recombinant human FMS Y969C mutant (538 to end residues) assessed as residual activity at 10 uM using EEEEYEEEEEEYYIIEEEEEEYEEEEEEYYEEEEEEKKKK as substrate measured after 40 mins in presence of [gamma33P]ATP by scintillation counting method.
Data set [7] deals with Casein kinase I isoform epsilon (Homo sapiens) (UniProt P49674). Kind of data set: Inhibition of human CK1epsilon assessed as residual activity at 10 uM using KRRRALS(p)VASLPGL as substrate measured after 120 mins in presence of [gamma33P]ATP by scintillation counting method.
The test system of data set [8] is HCT-116. Put plainly: Antitumor activity against human HCT116 cells xenografted in nude BALB/c mouse assessed as reduction in tumor weight at 40 mg/kg, po administered once daily for 4 weeks measured every 3 days during compound dosing. It is filed as functional, organism-based.
For data set [9], the target named is MAP kinase-interacting serine/threonine-protein kinase 2 (Homo sapiens) (UniProt Q9HBH9). Put plainly: Inhibition of recombinant full-length human Mnk2 assessed as residual activity at 10 uM using myelin basic protein as substrate measured after 40 mins in presence of [gamma33P]ATP by scintillation counting method.
Data set [10] addresses Rhodopsin kinase GRK7 (Homo sapiens) (UniProt Q8WTQ7). Kind of data set: Inhibition of recombinant full-length human GRK7 assessed as residual activity at 10 uM using casein as substrate measured after 40 mins in presence of [gamma33P]ATP by scintillation counting method.
The target in data set [11] is Serine/threonine-protein kinase Nek9 (Homo sapiens) (UniProt Q8TD19). Kind of data set: Inhibition of recombinant human NEK9 (1 to 324 residues) assessed as residual activity at 10 uM using myelin basic protein as substrate measured after 40 mins in presence of [gamma33P]ATP by scintillation counting method.
Data set [12] has as its target Cyclin-dependent kinase-like 4 (Homo sapiens) (UniProt Q5MAI5). Kind of data set: Inhibition of human CDKL4 assessed as residual activity at 10 uM by radiometric method.
Data set [13] relates to Tyrosine-protein kinase ABL1 (Homo sapiens), P00519 [M351T]. Kind of data set: Inhibition of recombinant human ABL M351T mutant (27 to end residues) assessed as residual activity at 10 uM using EAIYAAPFAKKK as substrate measured after 40 mins in presence of [gamma33P]ATP by scintillation counting method.
Data set [14] deals with Tyrosine-protein kinase ABL1 (Homo sapiens), P00519 [H396P]. Kind of data set: Inhibition of recombinant human ABL H396P mutant (27 to end residues) assessed as residual activity at 10 uM using EAIYAAPFAKKK as substrate measured after 40 mins in presence of [gamma33P]ATP by scintillation counting method.
The target of data set [15] is Mitogen-activated protein kinase kinase kinase 7 (Homo sapiens) (UniProt O43318). Kind of data set: Inhibition of human TAK1 (1 to 303 residues) using casein as substrate measured after 40 mins in presence of [gamma33P]ATP by scintillation counting method. More on the design: scale not given: the % may be the effect or the level left.
Data set [16] deals with Calcium/calmodulin-dependent protein kinase type IV (Homo sapiens) (UniProt Q16566). Put plainly: Inhibition of recombinant full-length human CaMK4 assessed as residual activity at 10 uM using calmodulin as substrate measured after 40 mins in presence of [gamma33P]ATP by scintillation counting method.
The test system of data set [17] is Hepatocyte growth factor receptor (Homo sapiens), P08581 [Y1230H]. Put plainly: Inhibition of recombinant human MET A1209G/V1290L/Y1248H mutant (974 to end residues) assessed as residual activity at 10 uM using KKKGQEEEYVFIE as substrate measured after 40 mins in presence of [gamma33P]ATP by scintillation counting method.
Data set [18] can be described thus: Toxicity in nude BALB/c mouse assessed as change in albumin level at 40 to 80 mg/kg, po once daily for 4 weeks measured post-last dose. The data set is classed as organism-based. To be noted: in vivo, 672 h.
Data set [19] deals with Mitogen-activated protein kinase 11 (Homo sapiens) (UniProt Q15759). Put plainly: Inhibition of recombinant full-length human SAPK2b assessed as residual activity at 10 uM using myelin basic protein as substrate measured after 40 mins in presence of [gamma33P]ATP by scintillation counting method.
Data set [20] has as its target Tyrosine-protein kinase Lyn (Homo sapiens) (UniProt P07948). Kind of data set: Inhibition of recombinant full-length human Lyn assessed as residual activity at 10 uM using poly(Glu, Tyr) 4:1 as substrate measured after 40 mins in presence of [gamma33P]ATP by scintillation counting method.
Data set [21] relates to HCT-116. Put plainly: Cell cycle arrest in human HCT116 cells assessed as up regulation of CDK1 expression up to 150 nM after 24 hrs by Western blot analysis. It is filed as functional, cell-based. For orientation: In western blotting, separated proteins are transferred to a membrane and probed.
Data set [22] is described as follows: Hepatotoxicity in nude BALB/c mouse at 80 mg/kg, po administered once daily for 4 weeks measured post-last dose by hematoxylin and eosin staining-based assay. The data set is classed as toxicity, organism-based. To be noted: in vivo, 672 h.
In data set [23] the test system is Mast/stem cell growth factor receptor Kit (Homo sapiens), P10721 [D816V]. Put plainly: Inhibition of recombinant human c-Kit D816V mutant (544 to end residues) assessed as residual activity at 10 uM using poly(Glu, Tyr) 4:1 as substrate measured after 40 mins in presence of [gamma33P]ATP by scintillation counting method.

Molecules are shown by their SMILES. The source made the active and inactive calls. The calls are words filed in the database; no cut-off is given here.

Serine/threonine-protein kinase Sgk2 (Homo sapiens), Q9HBY8 [S416D], sequence (Q9HBY8 1-367 with tags or gaps S416D): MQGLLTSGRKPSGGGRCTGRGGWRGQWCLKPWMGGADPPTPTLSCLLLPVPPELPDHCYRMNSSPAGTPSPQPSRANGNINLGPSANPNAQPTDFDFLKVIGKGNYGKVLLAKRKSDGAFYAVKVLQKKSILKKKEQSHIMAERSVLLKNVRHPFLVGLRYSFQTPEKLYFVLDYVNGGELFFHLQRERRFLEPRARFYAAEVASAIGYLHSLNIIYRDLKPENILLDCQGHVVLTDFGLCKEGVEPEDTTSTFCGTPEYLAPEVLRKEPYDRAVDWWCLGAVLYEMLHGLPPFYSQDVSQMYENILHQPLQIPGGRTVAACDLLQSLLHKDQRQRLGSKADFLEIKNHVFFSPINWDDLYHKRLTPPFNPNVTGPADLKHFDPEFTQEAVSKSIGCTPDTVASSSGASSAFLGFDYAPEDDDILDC
Macrophage colony-stimulating factor 1 receptor (Homo sapiens), P07333 [Y969C], sequence (P07333 whole entry Y969C, canonical isoform): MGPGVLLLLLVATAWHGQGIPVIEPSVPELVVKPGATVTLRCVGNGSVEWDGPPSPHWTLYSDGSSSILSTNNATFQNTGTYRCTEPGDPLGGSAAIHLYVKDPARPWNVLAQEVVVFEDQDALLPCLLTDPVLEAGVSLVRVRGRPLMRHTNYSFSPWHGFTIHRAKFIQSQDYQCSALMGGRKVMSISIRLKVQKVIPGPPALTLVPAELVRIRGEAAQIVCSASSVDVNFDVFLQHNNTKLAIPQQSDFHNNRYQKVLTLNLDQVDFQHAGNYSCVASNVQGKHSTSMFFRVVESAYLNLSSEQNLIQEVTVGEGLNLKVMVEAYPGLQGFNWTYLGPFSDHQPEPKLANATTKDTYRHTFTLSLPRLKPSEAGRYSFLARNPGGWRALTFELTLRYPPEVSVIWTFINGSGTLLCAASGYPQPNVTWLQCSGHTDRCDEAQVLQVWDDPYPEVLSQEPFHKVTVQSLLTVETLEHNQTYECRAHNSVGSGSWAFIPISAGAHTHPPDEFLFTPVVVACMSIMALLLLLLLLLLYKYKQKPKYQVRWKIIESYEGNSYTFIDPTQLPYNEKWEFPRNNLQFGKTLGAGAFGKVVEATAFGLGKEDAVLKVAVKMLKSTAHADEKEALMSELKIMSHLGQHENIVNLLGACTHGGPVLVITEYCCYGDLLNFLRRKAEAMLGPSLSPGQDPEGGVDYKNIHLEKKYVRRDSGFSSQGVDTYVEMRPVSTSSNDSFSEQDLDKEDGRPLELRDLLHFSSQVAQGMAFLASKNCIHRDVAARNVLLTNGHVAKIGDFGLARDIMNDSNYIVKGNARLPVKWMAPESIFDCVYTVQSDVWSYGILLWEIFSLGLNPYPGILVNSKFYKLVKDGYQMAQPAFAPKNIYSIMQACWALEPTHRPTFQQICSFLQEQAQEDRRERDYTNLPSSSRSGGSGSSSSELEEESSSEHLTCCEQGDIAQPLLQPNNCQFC
Ephrin type-B receptor 4 (Homo sapiens), sequence (P54760 whole entry): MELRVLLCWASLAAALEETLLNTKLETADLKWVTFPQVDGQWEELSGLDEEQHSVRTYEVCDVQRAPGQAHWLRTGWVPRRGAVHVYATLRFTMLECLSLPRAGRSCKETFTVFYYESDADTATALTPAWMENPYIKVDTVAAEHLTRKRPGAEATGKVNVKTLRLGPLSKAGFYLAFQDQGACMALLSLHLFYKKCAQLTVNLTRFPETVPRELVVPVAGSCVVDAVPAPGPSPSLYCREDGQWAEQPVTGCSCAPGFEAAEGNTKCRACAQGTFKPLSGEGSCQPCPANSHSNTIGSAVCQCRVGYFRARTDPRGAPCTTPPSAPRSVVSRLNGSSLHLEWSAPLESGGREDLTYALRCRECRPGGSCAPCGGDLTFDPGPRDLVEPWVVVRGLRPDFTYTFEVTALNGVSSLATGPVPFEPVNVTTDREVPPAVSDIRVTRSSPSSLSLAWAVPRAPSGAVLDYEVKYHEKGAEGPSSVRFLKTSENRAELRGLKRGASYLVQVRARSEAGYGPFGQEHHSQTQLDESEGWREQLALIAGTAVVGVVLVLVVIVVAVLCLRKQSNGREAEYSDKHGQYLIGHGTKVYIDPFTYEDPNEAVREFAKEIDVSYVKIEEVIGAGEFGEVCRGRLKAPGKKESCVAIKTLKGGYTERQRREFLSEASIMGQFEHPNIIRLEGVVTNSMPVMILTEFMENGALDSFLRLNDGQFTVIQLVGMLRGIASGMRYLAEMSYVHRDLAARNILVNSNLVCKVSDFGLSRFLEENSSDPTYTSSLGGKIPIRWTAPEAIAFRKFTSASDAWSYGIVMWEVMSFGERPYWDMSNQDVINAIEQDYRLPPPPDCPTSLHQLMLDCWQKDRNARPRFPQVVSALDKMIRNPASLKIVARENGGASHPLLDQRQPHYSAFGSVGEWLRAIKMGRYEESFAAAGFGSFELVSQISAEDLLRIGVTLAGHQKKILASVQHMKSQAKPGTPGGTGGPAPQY
Mast/stem cell growth factor receptor Kit (Homo sapiens), P10721 [D816V], sequence (P10721 whole entry D816V): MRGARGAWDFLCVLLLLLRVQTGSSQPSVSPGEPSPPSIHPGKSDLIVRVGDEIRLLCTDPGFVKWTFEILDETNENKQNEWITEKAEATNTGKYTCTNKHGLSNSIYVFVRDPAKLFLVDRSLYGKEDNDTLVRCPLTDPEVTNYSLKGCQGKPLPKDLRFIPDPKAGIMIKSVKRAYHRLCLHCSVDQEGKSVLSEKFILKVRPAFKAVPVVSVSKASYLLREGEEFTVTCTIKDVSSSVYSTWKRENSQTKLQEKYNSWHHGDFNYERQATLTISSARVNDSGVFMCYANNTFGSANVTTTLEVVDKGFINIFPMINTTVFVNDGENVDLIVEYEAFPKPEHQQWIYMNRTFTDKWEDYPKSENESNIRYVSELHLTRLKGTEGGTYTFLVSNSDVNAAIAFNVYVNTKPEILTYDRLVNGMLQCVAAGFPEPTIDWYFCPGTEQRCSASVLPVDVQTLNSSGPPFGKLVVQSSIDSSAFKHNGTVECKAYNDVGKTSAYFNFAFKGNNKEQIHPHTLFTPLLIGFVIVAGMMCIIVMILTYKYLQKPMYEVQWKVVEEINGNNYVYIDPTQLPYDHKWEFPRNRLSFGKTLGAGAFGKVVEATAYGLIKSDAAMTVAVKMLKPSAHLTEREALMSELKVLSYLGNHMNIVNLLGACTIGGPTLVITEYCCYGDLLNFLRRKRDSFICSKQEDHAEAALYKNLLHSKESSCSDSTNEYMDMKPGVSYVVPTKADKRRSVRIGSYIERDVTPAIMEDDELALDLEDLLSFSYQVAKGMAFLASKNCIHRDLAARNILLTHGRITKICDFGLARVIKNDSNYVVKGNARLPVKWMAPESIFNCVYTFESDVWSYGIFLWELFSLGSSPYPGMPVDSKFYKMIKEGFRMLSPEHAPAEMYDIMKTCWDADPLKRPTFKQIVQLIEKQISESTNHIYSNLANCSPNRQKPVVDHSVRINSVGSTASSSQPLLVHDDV
Serine/threonine-protein kinase Nek9 (Homo sapiens), sequence (Q8TD19 whole entry, the tested form may be a part): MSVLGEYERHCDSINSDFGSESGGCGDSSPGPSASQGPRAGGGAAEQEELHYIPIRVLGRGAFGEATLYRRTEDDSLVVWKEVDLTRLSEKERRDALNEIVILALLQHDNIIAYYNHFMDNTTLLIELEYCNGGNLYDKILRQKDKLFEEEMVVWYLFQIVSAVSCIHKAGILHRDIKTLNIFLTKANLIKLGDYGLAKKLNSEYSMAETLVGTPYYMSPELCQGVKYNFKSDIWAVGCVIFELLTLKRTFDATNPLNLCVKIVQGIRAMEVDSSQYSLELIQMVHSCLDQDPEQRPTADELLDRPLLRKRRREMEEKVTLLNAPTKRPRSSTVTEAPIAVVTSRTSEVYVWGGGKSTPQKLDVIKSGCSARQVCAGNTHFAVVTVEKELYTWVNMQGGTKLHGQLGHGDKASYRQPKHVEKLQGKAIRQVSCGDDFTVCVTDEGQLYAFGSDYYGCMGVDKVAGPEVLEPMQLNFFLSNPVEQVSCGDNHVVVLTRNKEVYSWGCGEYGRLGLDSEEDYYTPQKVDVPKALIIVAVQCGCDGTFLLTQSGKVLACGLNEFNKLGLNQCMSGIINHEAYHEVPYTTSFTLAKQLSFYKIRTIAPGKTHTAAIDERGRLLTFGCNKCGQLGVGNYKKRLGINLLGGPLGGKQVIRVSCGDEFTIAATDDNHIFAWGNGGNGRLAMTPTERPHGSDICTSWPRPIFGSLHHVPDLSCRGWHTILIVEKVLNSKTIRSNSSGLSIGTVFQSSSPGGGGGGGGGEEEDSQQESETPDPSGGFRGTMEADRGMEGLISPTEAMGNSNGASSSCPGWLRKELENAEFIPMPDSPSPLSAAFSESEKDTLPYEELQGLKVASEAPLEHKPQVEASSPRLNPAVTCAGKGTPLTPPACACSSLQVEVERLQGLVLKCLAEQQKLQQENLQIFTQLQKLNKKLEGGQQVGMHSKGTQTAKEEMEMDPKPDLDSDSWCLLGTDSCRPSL
MAP kinase-interacting serine/threonine-protein kinase 2 (Homo sapiens), sequence (Q9HBH9 whole entry, looked up): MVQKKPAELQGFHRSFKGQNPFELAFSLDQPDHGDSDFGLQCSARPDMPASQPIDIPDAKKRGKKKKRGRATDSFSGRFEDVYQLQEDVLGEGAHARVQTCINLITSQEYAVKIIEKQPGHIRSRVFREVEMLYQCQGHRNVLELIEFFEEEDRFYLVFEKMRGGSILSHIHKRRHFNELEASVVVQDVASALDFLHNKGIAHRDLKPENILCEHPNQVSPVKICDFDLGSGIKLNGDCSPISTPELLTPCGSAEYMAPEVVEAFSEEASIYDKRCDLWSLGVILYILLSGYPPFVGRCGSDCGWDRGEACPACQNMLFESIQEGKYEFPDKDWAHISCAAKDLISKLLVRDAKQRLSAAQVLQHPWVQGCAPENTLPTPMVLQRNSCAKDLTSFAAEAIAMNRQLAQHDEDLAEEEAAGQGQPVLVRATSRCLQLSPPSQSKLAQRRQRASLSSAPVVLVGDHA

Turning to `Cc1cc(C)c(CNc2nc(Cl)nc3c2ncn3C2CCCC2)c(=O)[nH]1`, the Activity in data set [1] amounted to 104%; in data set [2] it was 114%; in the data set listed under Mus musculus, 101%; in data set [3], 97.5%; in data set [4] it was 112%; in data set [5], 102%. For the same molecule, the Activity in data set [6] was found to be 94.5%; in [7] it was 100%; in [9], 88%; in data set [10] it was 102%; in [11] it was 102%; in data set [12], 116%. Moreover, the Activity in data set [13] was 96.5%; in data set [14], 104%; in data set [15], 98.5%; in data set [16], 121%; in [17], 99%; in data set [18], “Non-Toxic”. The Activity in [19] was 100%; in data set [20], 119%; in [22], “Non-Toxic”; in data set [23] it was 93%. Also, the outcome in the data set on HCT-116 [8] and in the data set on HCT-116 [21] was Active.
